From US4461891A, “2-β-D-Ribofuranosylthiazole-4-carboxamidine compounds” (Brigham Young University, priority 1983, dated 1984)

What was measured:
[1] = test system: purine nucleoside phosphorylase; assay: purine nucleoside phosphorylase (PNP-4) test: formation of [14C]-hypoxanthine from [14C]-inosine; format: biochemical; conditions: human erythrocytes as the source of enzyme; [14C]-inosine substrate
Text: In particular, the compound, in a standard protocol, patterned after that reported in Biomedicine, 33, 39-41(1980), has been shown typically to inhibit the formation of [^14 C]-hypoxanthine from [^14 C]-inosine using human erythrocytes as the source of enzyme. […] Since T-cells play a central role in immune response, use of the compounds of the invention is contemplated for the immunoregulation of autoimmune disease Such as rheumatoid arthritis, systemic lupus erythematosus, and inflammatory bowel disease. The present invention in another preferred aspect therefore relates to compositions containing at least one compound of the invention in treating disease such as autoimmune disease characterized by abnormal immune response in warm blooded animals. According to this aspect of the invention, the properties of 2-β-D-ribofuranosylthiazole-4-carboxamidines are utilized by administering to a warm blooded animal an effective amount of a pharmaceutical composition containing as the active ingredient at least about 0.1 percent by weight, based on the total weight of the composition of at least one such compound of the invention.

T-cells = assay: T-cell test: selective cytotoxicity in the presence of 2'-deoxyguanosine; format: cell-based
CEM T-lymphoblasts = assay: T-cell test with 2'-deoxyguanosine, CEM; format: cell-based; conditions: with 2'-deoxyguanosine (10 micromoles), read-out: ED50 (toxic for T-lymphoblasts)
MOLT-4 = assay: T-cell test with 2'-deoxyguanosine, MOLT-4; format: cell-based; conditions: with 2'-deoxyguanosine (10 micromoles), read-out: ED50 (toxic for T-lymphoblasts)
HSB = assay: T-cell test with 2'-deoxyguanosine, HSB; format: cell-based; conditions: with 2'-deoxyguanosine (10 micromoles), read-out: ED50 (toxic for T-lymphoblasts)

concentration at which total inhibition was achieved [1]: less than 300 micromoles
SMILES: Cl.N=C(N)c1csc([C@@H]2O[C@H](CO)[C@@H](O)[C@H]2O)n1 [Example 1, 2-β-D-Ribofuranosylthiazole-4-Carboxamidine, hydrochloride]
selective cytotoxicity for T-cells (T-cells): selectively cytotoxic for T-cells
IC50 (CEM T-lymphoblasts): ~77 µM
IC50 (MOLT-4): ~27 µM
IC50 (HSB): ~7 µM
